Results taken from the NIST ThermoML archive (doi:10.1016/j.jct.2011.08.019).
Several values for one entry are separate records, joined by “and”; a condition that tells them apart may be missing. Equal entries are not always repeated.

Assay: molar heat capacity at constant pressure
Details: 101.33 kPa, Liquid, Small sample (50 mg) DSC

CCCC[P+](C)(CCCC)CCCC.COS(=O)(=O)[O-] [tributylmethylphosphonium methyl sulfate]
Details | molar heat capacity at constant pressure
343.15 K | 668.1 J/K/mol and 660.8 J/K/mol
348.15 K | 672 J/K/mol and 665.4 J/K/mol
353.15 K | 676.3 J/K/mol and 669.7 J/K/mol
358.15 K | 681.2 J/K/mol and 674.3 J/K/mol
363.15 K | 685.8 J/K/mol and 678.9 J/K/mol
368.15 K | 690.4 J/K/mol and 683.8 J/K/mol
373.15 K | 695.3 J/K/mol and 687.4 J/K/mol
378.15 K | 698.3 J/K/mol and 692.4 J/K/mol
383.15 K | 703.2 J/K/mol and 697.3 J/K/mol
388.15 K | 707.2 J/K/mol and 702.2 J/K/mol
393.15 K | 711.1 J/K/mol and 705.5 J/K/mol
398.15 K | 714.4 J/K/mol and 711.1 J/K/mol
403.15 K | 715 J/K/mol and 715.4 J/K/mol
408.15 K | 720 J/K/mol and 718.6 J/K/mol
413.15 K | 726.2 J/K/mol and 721.3 J/K/mol
418.15 K | 729.2 J/K/mol and 723.9 J/K/mol
423.15 K | 733.1 J/K/mol and 728.8 J/K/mol
428.15 K | 736.4 J/K/mol and 732.4 J/K/mol
433.15 K | 738.4 J/K/mol and 737.4 J/K/mol
438.15 K | 743.3 J/K/mol and 741.6 J/K/mol
443.15 K | 745.9 J/K/mol and 744.6 J/K/mol
448.15 K | 748.9 J/K/mol and 747.6 J/K/mol
453.15 K | 751.8 J/K/mol and 750.8 J/K/mol
458.15 K | 754.4 J/K/mol and 754.1 J/K/mol
463.15 K | 757.4 J/K/mol and 756.1 J/K/mol

CCCCCCCCCCCCCC[P+](CCCCCC)(CCCCCC)CCCCCC.O=S(=O)([N-]S(=O)(=O)C(F)(F)F)C(F)(F)F
Details | molar heat capacity at constant pressure
328.15 K | 1373.7 J/K/mol and 1363 J/K/mol and 1359.9 J/K/mol
333.15 K | 1370.6 J/K/mol [middle of 4 runs]
338.15 K | 1375.2 J/K/mol [middle of 4 runs]
343.15 K | 1381.3 J/K/mol [middle of 4 runs]
348.15 K | 1390.5 J/K/mol [middle of 4 runs]
353.15 K | 1400.4 J/K/mol [middle of 4 runs]
358.15 K | 1410.4 J/K/mol and 1399.7 J/K/mol and 1395.1 J/K/mol
363.15 K | 1419.5 J/K/mol [middle of 4 runs]
368.15 K | 1428.7 J/K/mol and 1420.3 J/K/mol and 1426.4 J/K/mol
373.15 K | 1439.4 J/K/mol [middle of 4 runs]
378.15 K | 1445.5 J/K/mol [middle of 4 runs]
383.15 K | 1454.7 J/K/mol [middle of 4 runs]
388.15 K | 1462.3 J/K/mol [middle of 4 runs]
393.15 K | 1470 J/K/mol [middle of 4 runs]
398.15 K | 1479.9 J/K/mol [middle of 4 runs]
403.15 K | 1487.5 J/K/mol and 1478.4 J/K/mol and 1469.2 J/K/mol
408.15 K | 1494.4 J/K/mol [middle of 4 runs]
413.15 K | 1501.3 J/K/mol [middle of 4 runs]
418.15 K | 1508.9 J/K/mol [middle of 4 runs]
423.15 K | 1516.6 J/K/mol [middle of 4 runs]
428.15 K | 1521.9 J/K/mol [middle of 4 runs]
433.15 K | 1533.4 J/K/mol and 1519.6 J/K/mol and 1509.7 J/K/mol
438.15 K | 1541 J/K/mol [middle of 4 runs]
443.15 K | 1544.8 J/K/mol [middle of 4 runs]
448.15 K | 1548.6 J/K/mol [middle of 4 runs]
453.15 K | 1557.8 J/K/mol [middle of 4 runs]
458.15 K | 1561.6 J/K/mol [middle of 4 runs]
463.15 K | 1567.7 J/K/mol [middle of 4 runs]

CCCCCCCCCCCCCC[P+](CCCCCC)(CCCCCC)CCCCCC.FC(F)(F)C(F)(F)[P-](F)(F)(F)(C(F)(F)C(F)(F)F)C(F)(F)C(F)(F)F
Details | molar heat capacity at constant pressure
338.15 K | 1543.8 J/K/mol [middle of 4 runs]
343.15 K | 1547.5 J/K/mol [middle of 4 runs]
348.15 K | 1556.8 J/K/mol [middle of 4 runs]
353.15 K | 1566.1 J/K/mol and 1563.3 J/K/mol
358.15 K | 1577.2 J/K/mol and 1574.4 J/K/mol
363.15 K | 1587.4 J/K/mol and 1583.7 J/K/mol and 1585.6 J/K/mol
368.15 K | 1596.7 J/K/mol [middle of 4 runs]
373.15 K | 1604.1 J/K/mol [middle of 4 runs]
378.15 K | 1615.3 J/K/mol [middle of 4 runs]
383.15 K | 1626.4 J/K/mol [middle of 4 runs]
388.15 K | 1634.8 J/K/mol
393.15 K | 1645 J/K/mol [middle of 4 runs]
398.15 K | 1652.4 J/K/mol [middle of 4 runs]
403.15 K | 1661.7 J/K/mol [middle of 4 runs]
408.15 K | 1668.2 J/K/mol and 1669.2 J/K/mol
413.15 K | 1678.4 J/K/mol and 1677.5 J/K/mol
418.15 K | 1688.7 J/K/mol and 1685.9 J/K/mol and 1687.7 J/K/mol
423.15 K | 1697 J/K/mol [middle of 4 runs]
428.15 K | 1700.7 J/K/mol [middle of 4 runs]
433.15 K | 1707.2 J/K/mol and 1711 J/K/mol
438.15 K | 1722.1 J/K/mol [middle of 4 runs]
443.15 K | 1727.7 J/K/mol [middle of 4 runs]
448.15 K | 1735.1 J/K/mol [middle of 4 runs]
453.15 K | 1743.5 J/K/mol [middle of 4 runs]
458.15 K | 1750 J/K/mol and 1753.7 J/K/mol and 1739.7 J/K/mol
463.15 K | 1756.5 J/K/mol [middle of 4 runs]
468.15 K | 1761.1 J/K/mol [middle of 4 runs]
473.15 K | 1763.9 J/K/mol [middle of 4 runs]
478.15 K | 1771.3 J/K/mol [middle of 4 runs]
483.15 K | 1768.5 J/K/mol and 1776 J/K/mol and 1780.6 J/K/mol
488.15 K | 1785.3 J/K/mol [middle of 4 runs]
493.15 K | 1785.3 J/K/mol [middle of 4 runs]
498.15 K | 1787.1 J/K/mol [middle of 4 runs]
503.15 K | 1798.3 J/K/mol [middle of 4 runs]
508.15 K | 1802 J/K/mol [middle of 4 runs]
513.15 K | 1809.4 J/K/mol and 1803.8 J/K/mol and 1805.7 J/K/mol

CCn1cc[n+](C)c1.O=S(=O)([N-]S(=O)(=O)C(F)(F)F)C(F)(F)F
Details | molar heat capacity at constant pressure
343.15 K | 531 J/K/mol and 533.4 J/K/mol and 533.7 J/K/mol
348.15 K | 531.8 J/K/mol and 534.1 J/K/mol and 534.9 J/K/mol
353.15 K | 533 J/K/mol and 536.1 J/K/mol
358.15 K | 537.3 J/K/mol and 537.7 J/K/mol and 534.9 J/K/mol
363.15 K | 536.1 J/K/mol and 538.4 J/K/mol and 539.2 J/K/mol
368.15 K | 537.7 J/K/mol and 539.6 J/K/mol and 540.4 J/K/mol
373.15 K | 538.8 J/K/mol and 541.6 J/K/mol and 542.4 J/K/mol
378.15 K | 540.8 J/K/mol and 542.7 J/K/mol and 543.5 J/K/mol
383.15 K | 541.6 J/K/mol and 543.9 J/K/mol
388.15 K | 542.7 J/K/mol and 545.1 J/K/mol and 545.5 J/K/mol
393.15 K | 544.7 J/K/mol and 546.7 J/K/mol
398.15 K | 545.5 J/K/mol and 547.4 J/K/mol and 548.2 J/K/mol
403.15 K | 547.4 J/K/mol and 549.4 J/K/mol
408.15 K | 548.6 J/K/mol and 550.2 J/K/mol and 549.8 J/K/mol
413.15 K | 549.4 J/K/mol and 552.1 J/K/mol and 550.2 J/K/mol
418.15 K | 550.6 J/K/mol and 552.5 J/K/mol and 551.7 J/K/mol
423.15 K | 551.4 J/K/mol and 552.9 J/K/mol and 552.5 J/K/mol
428.15 K | 552.1 J/K/mol and 553.7 J/K/mol and 552.9 J/K/mol
433.15 K | 552.5 J/K/mol and 554.9 J/K/mol and 555.3 J/K/mol
438.15 K | 554.1 J/K/mol and 556.1 J/K/mol and 555.7 J/K/mol
443.15 K | 554.9 J/K/mol and 556.4 J/K/mol and 556.1 J/K/mol
448.15 K | 555.7 J/K/mol and 557.2 J/K/mol
453.15 K | 556.4 J/K/mol and 558.4 J/K/mol and 556.8 J/K/mol
458.15 K | 557.6 J/K/mol and 558.4 J/K/mol and 558 J/K/mol
463.15 K | 557.6 J/K/mol and 558.8 J/K/mol

CCCCCCCCCCCCCC[P+](CCCCCC)(CCCCCC)CCCCCC.N#C[N-]C#N [tetradecyl(trihexyl)phosphonium dicyanamide]
Details | molar heat capacity at constant pressure
313.15 K | 1060.2 J/K/mol and 1065.1 J/K/mol and 1061.3 J/K/mol
318.15 K | 1065.7 J/K/mol and 1070.6 J/K/mol and 1067.3 J/K/mol
323.15 K | 1075.6 J/K/mol and 1080 J/K/mol and 1076.1 J/K/mol
328.15 K | 1089.3 J/K/mol and 1086 J/K/mol and 1084.4 J/K/mol
333.15 K | 1094.3 J/K/mol and 1099.2 J/K/mol and 1095.4 J/K/mol
338.15 K | 1105.3 J/K/mol and 1109.1 J/K/mol and 1106.9 J/K/mol
343.15 K | 1114.6 J/K/mol and 1119.6 J/K/mol and 1116.8 J/K/mol
348.15 K | 1124.5 J/K/mol and 1129.5 J/K/mol and 1127.3 J/K/mol
353.15 K | 1135 J/K/mol and 1140.5 J/K/mol and 1137.2 J/K/mol
358.15 K | 1145.4 J/K/mol and 1150.4 J/K/mol and 1147.6 J/K/mol
363.15 K | 1155.3 J/K/mol and 1160.3 J/K/mol
368.15 K | 1164.1 J/K/mol and 1169.1 J/K/mol and 1165.2 J/K/mol
373.15 K | 1172.9 J/K/mol and 1177.9 J/K/mol and 1173.5 J/K/mol
378.15 K | 1180.6 J/K/mol and 1186.1 J/K/mol and 1190.5 J/K/mol
383.15 K | 1188.9 J/K/mol and 1194.4 J/K/mol and 1194.9 J/K/mol
388.15 K | 1197.7 J/K/mol and 1203.2 J/K/mol and 1204.8 J/K/mol
393.15 K | 1205.9 J/K/mol and 1212 J/K/mol and 1214.2 J/K/mol
398.15 K | 1213.6 J/K/mol and 1219.7 J/K/mol and 1220.2 J/K/mol
403.15 K | 1221.3 J/K/mol and 1226.8 J/K/mol and 1227.9 J/K/mol
408.15 K | 1227.4 J/K/mol and 1233.4 J/K/mol and 1234 J/K/mol
413.15 K | 1234.5 J/K/mol and 1241.1 J/K/mol and 1244.4 J/K/mol

CCCCCCCCCCCCCC[P+](CCCCCC)(CCCCCC)CCCCCC.[Cl-] [trihexyl(tetradecyl)phosphonium chloride]
Details | molar heat capacity at constant pressure
338.15 K | 835 J/K/mol and 833.5 J/K/mol and 834 J/K/mol
343.15 K | 838.7 J/K/mol and 837.1 J/K/mol and 837.6 J/K/mol
348.15 K | 842.8 J/K/mol [middle of 4 runs]
353.15 K | 850.6 J/K/mol and 848.5 J/K/mol and 849.1 J/K/mol
358.15 K | 857.9 J/K/mol and 855.3 J/K/mol and 854.8 J/K/mol
363.15 K | 863.6 J/K/mol and 861.5 J/K/mol and 860.5 J/K/mol
368.15 K | 870.9 J/K/mol and 868.3 J/K/mol and 867.8 J/K/mol
373.15 K | 876.6 J/K/mol and 874.5 J/K/mol and 874 J/K/mol
378.15 K | 881.8 J/K/mol [middle of 4 runs]
383.15 K | 889.6 J/K/mol and 886.5 J/K/mol and 888 J/K/mol
388.15 K | 893.7 J/K/mol [middle of 4 runs]
393.15 K | 901 J/K/mol and 899.4 J/K/mol and 898.4 J/K/mol
398.15 K | 905.2 J/K/mol [middle of 4 runs]
403.15 K | 910.3 J/K/mol [middle of 4 runs]
408.15 K | 917.6 J/K/mol and 915 J/K/mol and 916.1 J/K/mol
413.15 K | 922.8 J/K/mol [middle of 4 runs]
418.15 K | 928 J/K/mol [middle of 4 runs]
423.15 K | 933.2 J/K/mol and 931.1 J/K/mol and 932.7 J/K/mol
428.15 K | 937.9 J/K/mol [middle of 4 runs]
433.15 K | 944.1 J/K/mol [middle of 4 runs]
438.15 K | 948.8 J/K/mol [middle of 4 runs]
443.15 K | 952.4 J/K/mol and 953.4 J/K/mol and 951.4 J/K/mol
448.15 K | 957.1 J/K/mol [middle of 4 runs]
453.15 K | 961.2 J/K/mol [middle of 4 runs]
458.15 K | 965.4 J/K/mol [middle of 4 runs]
463.15 K | 968 J/K/mol [middle of 4 runs]
